The assay deals with T1, MAGL (recombinant wild-type) (Homo sapiens, UniProt Q99685).
T1 sequence (Q99685 1-303): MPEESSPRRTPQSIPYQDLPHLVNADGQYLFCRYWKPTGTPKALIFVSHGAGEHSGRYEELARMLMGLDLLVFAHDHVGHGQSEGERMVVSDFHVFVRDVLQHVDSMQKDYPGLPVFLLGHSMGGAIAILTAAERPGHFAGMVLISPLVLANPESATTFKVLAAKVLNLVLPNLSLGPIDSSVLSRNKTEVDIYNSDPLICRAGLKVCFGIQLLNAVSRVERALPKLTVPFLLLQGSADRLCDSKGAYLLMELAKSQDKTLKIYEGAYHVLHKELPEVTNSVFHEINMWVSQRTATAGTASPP
In words: 4-NPA assay: MAGL inhibitory activity by hydrolysis of 4-nitrophenylacetate, absorbance at 405 nm. The format is biochemical. Conditions: 4-NPA assay (values without footnote [b]). The essentials: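 Final assay: 1 nM MAGL and 300 μM 4-nitrophenylacetate in 50 mM Tris, 1 mM EDTA, at RT. Compounds (25 μM–1.7 nM, 3-fold steps) were preincubated 15 min with enzyme. A405 was read 5 min after substrate addition and again after 80 min; activity was taken as the difference between reads.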

As for `CC(C)(F)Cc1nc(-c2ccc(C(=O)N3CCN(c4nc5nc(Cl)ccc5o4)CC3)cc2)no1` [Example 264, [4-(5-chlorooxazolo[4,5-b]pyridin-2-yl)piperazin-1-yl]-[4-[5-(2-fluoro-2-methyl-propyl)-1,2,4-oxadiazol-3-yl]phenyl]methanone], the IC50 – broadly, the concentration at which inhibition is half-maximal – is 0.059 µM.

`C=C(C)Cc1nc(-c2ccc(C(=O)N3CCN(c4nc5nc(Cl)ccc5o4)CC3)cc2)no1` [Example 265, [4-(5-chlorooxazolo[4,5-b]pyridin-2-yl)piperazin-1-yl]-[4-[5-(2-methylallyl)-1,2,4-oxadiazol-3-yl]phenyl]methanone]: the IC50 came to 0.03 µM.

`CC(C)=Cc1nc(-c2ccc(C(=O)N3CCN(c4nc5nc(Cl)ccc5o4)CC3)cc2)no1` [Example 266, [4-(5-chlorooxazolo[4,5-b]pyridin-2-yl)piperazin-1-yl]-[4-[5-(2-methylprop-1-enyl)-1,2,4-oxadiazol-3-yl]phenyl]methanone]: the IC50 amounted to 0.101 µM.

Turning to `Cc1ccc2oc(N3CCN(C(=O)N4CC5(C4)CN(S(=O)(=O)c4cccc(Cl)c4)C5)CC3)nc2n1` [Example 305, [2-(3-chlorophenyl)sulfonyl-2,6-diazaspiro[3.3]heptan-6-yl]-[4-(5-methyloxazolo[4,5-b]pyridin-2-yl)piperazin-1-yl]methanone], the IC50 was determined as 2.42 µM.

Values taken from patent US20220135591A1, “HETEROCYCLIC COMPOUNDS AS INHIBITORS OF MONOACYLGLYCEROL LIPASE (MAGL)” (Hoffmann-La Roche Inc., priority 2019, published 2022).
